Entries after “also recorded” stand apart in the source; their conditions may differ.
Legend:
[1] = tested on: iPS cells (FF-101s04 strain); assay: Engraftment of iPS cells seeded in phenolphthalein derivative-added cell seeding agents (differentiation induction, fixed or changed seeding density); type: cell-based; settings: derivative 0.22 mM, day 7; for cell engraftment at specified seeding density: seeded at 1.04×10^4 cells/cm^2; for cell engraftment at seeding number lower than specified density: seeding density lower than 1.04×10^4 cells/cm^2
Experimental: T12.5 flask (Corning Incorporated/353107) was coated with iMatrix511 (MATRIXOME, Inc./892005) at a concentration of 6 μg/mL. iPS cells (FF-101s04 strain) were suspended in AK03N+Y medium at a density of 8.0×10^3 cells/cm^2, and were seeded into the T12.5 flask. Culture was started in a CO2 incubator at 37° C., and the medium was replaced the next day with AK03N medium not containing Y-27632. After a gap of 2 days, medium exchange was performed for 2 consecutive days, and passage was performed on the 6th day of culture.
A T25 flask (Sumitomo Bakelite Co., Ltd./MS-23050) was coated with iMatrix511 (MATRIXOME, Inc./892005) at a concentration of 6 μg/mL. iPS cells were suspended in AK03N+Y medium at a density of 2.2×10^3 cells/cm^2, and were seeded into the T25 flask. Culture was started in a CO2 incubator at 37° C., and the medium was replaced the next day with AK03N medium not containing Y-27632. After a gap of 2 days, medium exchange was performed for 2 consecutive days, and passage was performed on the 6th day of culture.
DMEM/F12 non phenol red (Thermo Fisher Scientific, Inc./11039-021) was used as the basal medium, and a phenol red-free corneal endothelial substitute cell induction medium was prepared (hereinafter also to be referred to as phenol red-free medium in this Example). To the basal medium (500 mL) were added, as additives, ITS-Supplement (Ventria/777ITS091), IGF1 (OrphanPacific, Inc.; Somazone for injection/858100075, 1 mg/mL), LIF (FUJIFILM Wako Pure Chemical Corporation/125-06661), IL-6 (Miltenyi Biotec/170-076-161), IL-11 (Pepro tech/AF-200-11), TNFα (Miltenyi Biotec/170-076-178), and water-soluble HYDROCORTONE Injection (Nichi-Iko Pharmaceutical Co., Ltd./27126333) described in the following Table 1.
The phenolphthalein derivatives shown in the following Table 2, B to D, were dissolved in advance in ethanol to a concentration of 6.6×10^−6 mol/mL. 30 mL each of the phenol red-free corneal endothelial substitute cell induction medium prepared in the above-mentioned 2. was dispensed into four 50 mL tubes, and 40.5 μL of A phenolsulfonphthalein injection 0.6% (AFP) was added to one of the four tubes. Furthermore, 100 μL of B cresol red solution with adjusted concentration was added to one of the remaining three tubes. Similarly, C thymol blue solution and D bromocresol purple solution were respectively added to the remaining two tubes. A total of four different phenolphthalein derivative-containing media were prepared and used as phenolphthalein derivative-added cell seeding agents. Each seeding agent was adjusted to have a phenolphthalein derivative concentration of 0.22 mM. […]

[2] = tested on: iPS cell-derived corneal endothelial substitute cells; assay: Influence of ROCK inhibitor on tight junction formation (ZO-1 expression) during passage operation in differentiation induction; type: cell-based; settings: 10 μM Y-27632 during passage operation; FIG. 1
Experimental: An influence of a ROCK inhibitor during the passage operation in the differentiation induction step of iPS cell-derived corneal endothelial substitute cells was investigated. According to Example 1 and Experimental Example 2 of Patent Literature 3 (10 μM Y-27632 was used as ROCK inhibitor instead of fasudil), the expression of ZO-1 was investigated.

[3] = tested on: iPS cell-derived corneal endothelial substitute cells; assay: Influence of phenol red in cell seeding agent on engraftment, recovered cell number and survival rate in differentiation induction step; type: cell-based; settings: with vs without phenol red
Experimental: When induction into corneal endothelial substitute cell was started, iPS cells recovered using TrypLE-Select (Thermo Fisher Scientific) were suspended in a phenol red-added cell seeding agent or phenol red no-addition cell seeding agent. A 100 mm culture dish (Sumitomo Bakelite Co., Ltd.) was coated with iMatrix 511 at a concentration of 3 μg/ml, and iPS cells suspended in each cell seeding agent were seeded at a density of 1.0×10^4 cells/cm^2. Culture was started in a CO2 incubator at 37° C., and thereafter, the medium was replaced with phenol red-added corneal endothelial substitute cell induction medium or phenol red no-addition corneal endothelial substitute cell induction medium at a frequency of once every 2 to 3 days thereafter. Culture was performed for 14 days under the above-mentioned conditions in each medium for inducing corneal endothelial substitute cells. After 3, 5, and 7 days of culture, the state of the cells was confirmed under a microscope (FIG. 2A). After culturing for 14 days, for the groups in which cell engraftment was observed under a microscope, the cells were collected and the number of cells was counted. The cells were collected after removing the culture supernatant, washed twice using DPBS (−) (Thermo Fisher Scientific), detached using Accutase (Innovative Cell Technologies), and collected into a centrifuge tube. The cells collected into the centrifuge tube were separated by centrifugation, and after adjusting the cell concentration using a medium and the like, the cell concentration and survival rate were measured using an automatic cell counter (ChemoMetec) (FIG. 2B).

[4] = tested on: Macaca fascicularis bullous keratopathy model; assay: Transplantation of corneal endothelial substitute cell suspension into anterior chamber of bullous keratopathy model; type: in vivo
Experimental: A cell suspension of iPS cell-derived corneal endothelial substitute cells (8×10^5 cells/160 μl) obtained in Example 1 was transplanted to the anterior chamber of a Macaca fascicularis bullous keratopathy model (conducted by SHIN NIPPON BIOMEDICAL LABORATORIES, LTD.). Two types of substrates for transplantation (containing insulin, insulin-like growth factor, and the like) were prepared: one with and one without the addition of phenol red. The corneal endothelial substitute cell suspension was transplanted into the anterior chamber of the eye by the following procedure. • (1) Corneal endothelial substitute cells suspended in two types of substrates for transplantation, with and without phenol red added, were injected into the anterior chamber using a 27-gauge syringe. • (2) Macaca fascicularis was placed face down for 3 hr. • (3) After 28 days of observation, the eyeballs were collected and observed macroscopically and microscopically. Formation of a corneal endothelial substitute cell layer and corneal thickness were measured for the transplanted eye. Corneal thickness was measured using a corneal thickness measuring device (Tomey Corporation; SP-100).

## Cc1cc(O)c(C(C)C)cc1C1(c2cc(C(C)C)c(O)cc2C)OS(=O)(=O)c2ccccc21 [thymol blue]
[1]
  cell engraftment at specified seeding density: Engraftment was also confirmed

## Cc1cc(C2(c3cc(C)c(O)c(Br)c3)OS(=O)(=O)c3ccccc32)cc(Br)c1O [bromocresol purple]
[1]
  cell engraftment at specified seeding density: Engraftment was also confirmed

## C[C@@H](N)[C@H]1CC[C@H](C(=O)Nc2ccncc2)CC1 [Y-27632]
[2]
  cell transformation (epithelial-to-mesenchymal transition): causes transformation that appears to be epithelial-to-mesenchymal transition
  formation of tight junction (expression of ZO-1): formation of tight junction was inhibited; also recorded: inhibits the formation of tight junction

## Cc1cc(C2(c3ccc(O)c(C)c3)OS(=O)(=O)c3ccccc32)ccc1O [cresol red]
[1]
  cell engraftment at seeding number lower than specified density: cell engraftment was confirmed

## O=S1(=O)OC(c2ccc(O)cc2)(c2ccc(O)cc2)c2ccccc21 [phenol red, phenolsulfonphthalein]
[3]; 3rd, 5th, 7th day of culture, seeded at 1.0×10^4 cells/cm^2, FIG. 2A
  engraftment of cells after seeding (microscope): Engraftment was clearly better
[3]; day 14 of culture, FIG. 2B
  number of recovered viable cells: clearly superior
  survival rate: clearly superior
[4]; 8×10^5 cells/160 μl into anterior chamber, substrate with phenol red, 28 days observation, FIG. 4
  engraftment and distribution of transplanted cells on posterior cornea: engrafted on the posterior cornea and spread uniformly
[4]; substrate for transplantation with phenol red, FIG. 3
  corneal thickness: a decrease in corneal thickness was observed; also recorded: corneal thickness decreased
[4]; substrate for transplantation with phenol red, judged from corneal thickness, FIG. 3
  corneal edema: corneal edema was improved; also recorded: corneal edema-improving effect was observed
[1]
  cell engraftment at seeding number lower than specified density: cell engraftment was confirmed

Reference: patent US20240352409A1, “CELL SEEDING AGENT AND SUBSTRATE FOR CELL TRANSPLANTATION USE” (CELLUSION INC., priority 2021, published 2024)
